What follows are compounds tested on PDE4 (assay: PDE4 inhibition, scintillation proximity assay (SPA)). Details: scintillation proximity assay (SPA); evaluated as classes A, B, C; read-out: PDE4 Inhibitory Activity (concentration for the inhibition rate of 50%).
Type: biochemical
Outline: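 Scintillation proximity read-out: [2,8-3H]-cAMP hydrolysis by PDE4 ran 120 min at room temperature in Tris-HCl pH 7.4 buffer with 8.3 mM MgCl2, 1.7 mM EGTA and 3 mg/mL BSA. Bead-bound product (YSi-SPA with ZnSO4, 15 min) counted; blank lacks enzyme, control has DMSO only.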
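For PDE4 Inhibitory Activity (concentration for the inhibition rate of 50%) in this document: A below 100 nM B 100 to below 1000 nM C 1000 nM or more.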

Row | SMILES | IC50 [nM]
1 | CC(C)Oc1cc(-c2nccs2)c2oc(N3CC4CCC(C3)N4)nc2c1 [Example 68, 2-(3,8-Diazabicyclo[3.2.1]octan-3-yl)-5-isopropoxy-7-(thiazol-2-yl)benzo[d]oxazole] | < 100
2 | OC(c1cc(-c2nccs2)c2oc(N3CC4CCC(C3)N4)nc2c1)C(F)(F)F (stereo not shown) [Example 138, 1-(2-(3,8-Diazabicyclo[3.2.1]octan-3-yl)-7-(thiazol-2-yl)benzo[d]oxazol-5-yl)-2,2,2-trifluoroethan-1-ol] | < 100
3 | Clc1ccc(-c2nccs2)c2oc(N3CC4CC(C3)N4)nc12 [Example 37, 2-(3,6-Diazabicyclo[3.1.1]heptan-3-yl)-4-chloro-7-(thiazol-2-yl)benzo[d]oxazole] | < 100
4 | FC(F)(F)c1c(Cl)cc(-c2ccccn2)c2oc(N3CC4CCC(C3)N4)nc12 [Example 11, 2-(3,8-Diazabicyclo[3.2.1]octan-3-yl)-5-chloro-7-(pyridin-2-yl)-4-(trifluoromethyl)benzo[d]oxazole] | < 100
5 | OCC(F)(F)Oc1ccc(-n2cccn2)c2oc(N3CC4CC(C3)N4)nc12 [Example 320, 2-((2-(3,6-Diazabicyclo[3.1.1]heptan-3-yl)-7-(1H-pyrazol-1-yl)benzo[d]oxazol-4-yl)oxy)-2,2-difluoroethan-1-ol] | < 100
6 | FC(F)(F)Oc1c(Cl)cc(-c2nccs2)c2oc(N3CC4CCCC(C3)N4)nc12 [Example 2, 2-(3,9-Diazabicyclo[3.3.1]nonan-3-yl)-5-chloro-7-(thiazol-2-yl)-4-(trifluoromethoxy)benzo[d]oxazole] | < 100
7 | CC(C)c1cc(-c2nccs2)c2oc(N3CC4COCC(C3)N4)nc2c1 [Example 23, 7-(5-Isopropyl-7-(thiazol-2-yl)benzo[d]oxazol-2-yl)-3-oxa-7,9-diazabicyclo[3.3.1]nonane] | 100 to 1000
8 | COC(C)(C)c1cc(-c2nccs2)c2oc(N3CC4CCC(C3)N4)nc2c1OC(F)(F)F [Example 198, 2-(3,8-Diazabicyclo[3.2.1]octan-3-yl)-5-(2-methoxypropan-2-yl)-7-(thiazol-2-yl)-4-(trifluoromethoxy)benzo[d]oxazole] | < 100
9 | COC(C)(C)c1cc(-c2nccs2)c2oc(N3CC4CCC(C3)N4)nc2c1 [Example 175, 2-(3,8-Diazabicyclo[3.2.1]octan-3-yl)-5-(2-methoxypropan-2-yl)-7-(thiazol-2-yl)benzo[d]oxazole] | < 100
10 | CS(=O)(=O)c1cc(-c2nccs2)c2oc(N3CC4CCC(C3)N4)nc2c1 [Example 45, 2-(3,8-Diazabicyclo[3.2.1]octan-3-yl)-5-(methylsulfonyl)-7-(thiazol-2-yl)benzo[d]oxazole] | < 100
11 | COC(C)c1ccc(-c2nccs2)c2oc(N3CC4CCCC(C3)N4)nc12 (stereo not shown) [Example 243, 2-(3,9-Diazabicyclo[3.3.1]nonan-3-yl)-4-(1-methoxyethyl)-7-(thiazol-2-yl)benzo[d]oxazole] | < 100
12 | OC(c1cc(-c2cscn2)c2oc(N3CC4CC(C3)N4)nc2c1OC(F)(F)F)C(F)F (stereo not shown) [Example 301, 1-(2-(3,6-Diazabicyclo[3.1.1]heptan-3-yl)-7-(thiazol-4-yl)-4-(trifluoromethoxy)benzo[d]oxazol-5-yl)-2,2-difluoroethan-1-ol] | < 100
13 | OC(c1cc(-c2nccs2)c2oc(N3CC4CC(C3)N4)nc2c1OC(F)(F)F)C(F)F (stereo not shown) [Example 292, 1-(2-(3,6-Diazabicyclo[3.1.1]heptan-3-yl)-7-(thiazol-2-yl)-4-(trifluoromethoxy)benzo[d]oxazol-5-yl)-2,2-difluoroethan-1-ol] | < 100
14 | Oc1ccc(-c2nccs2)c2oc(N3CC4CCC(C3)N4)nc12 [Example 78, 2-(3,8-Diazabicyclo[3.2.1]octan-3-yl)-7-(thiazol-2-yl) benzo[d]oxazol-4-ol] | < 100
15 | COc1cc(-c2nccs2)c2oc(N3CC4CCCC(C3)N4)nc2c1 [Example 62, 2-(3,9-Diazabicyclo[3.3.1]nonan-3-yl)-5-methoxy-7-(thiazol-2-yl)benzo[d]oxazole] | < 100
16 | OC(COc1ccc(-c2nccs2)c2oc(N3CC4CC(C3)N4)nc12)C(F)(F)F (stereo not shown) [Example 277, 3-((2-(3,6-Diazabicyclo[3.1.1]heptan-3-yl)-7-(thiazol-2-yl)benzo[d]oxazol-4-yl)oxy)-1,1,1-trifluoropropan-2-ol] | < 100

Row | SMILES | IC50 [nM]
17 | FC(F)(F)c1cc(-c2nccs2)c2oc(N3CC4CC(C3)N4)nc2c1 [Example 52, 2-(3,6-Diazabicyclo[3.1.1]heptan-3-yl)-7-(thiazol-2-yl)-5-(trifluoromethyl)benzo[d]oxazole] | < 100
18 | COC(C)c1cc(-c2nccs2)c2oc(N3CC4CC(C3)N4)nc2c1OC(F)(F)F (stereo not shown) [Example 211, 2-(3,6-Diazabicyclo[3.1.1]heptan-3-yl)-5-(1-methoxyethyl)-7-(thiazol-2-yl)-4-(trifluoromethoxy)benzo[d]oxazole] | < 100
19 | CC(C)(O)c1cc(-c2cscn2)c2oc(N3CC4CCC(C3)N4)nc2c1OC(F)(F)F [Example 291, 2-(2-(3,8-Diazabicyclo[3.2.1]octan-3-yl)-7-(thiazol-4-yl)-4-(trifluoromethoxy)benzo[d]oxazol-5-yl)propan-2-ol] | < 100
20 | c1csc(-c2ccc(OC3CCCOC3)c3nc(N4CC5CCC(C4)N5)oc23)n1 (stereo not shown) [Example 262, 2-(3,8-Diazabicyclo[3.2.1]octan-3-yl)-4-((tetrahydro-2H-pyran-3-yl)oxy)-7-(thiazol-2-yl)benzo[d]oxazole] | < 100
21 | CC(=O)Nc1ccc(-c2nccs2)c2oc(N3CC4CCCC(C3)N4)nc12 [Example 34, N-(2-(3,9-Diazabicyclo[3.3.1]nonan-3-yl)-7-(thiazol-2-yl)benzo[d]oxazol-4-yl)acetamide] | < 100
22 | CC(=O)Nc1cc(-c2nccs2)c2oc(N3CC4CC(C3)N4)nc2c1 [Example 49, N-(2-(3,6-diazabicyclo[3.1.1]heptan-3-yl)-7-(thiazol-2-yl)benzo[d]oxazol-5-yl)acetamide] | 100 to 1000
23 | CC(O)c1ccc(-c2nccs2)c2oc(N3CC4CC(C3)N4)nc12 (stereo not shown) [Example 240, 1-(2-(3,6-Diazabicyclo[3.1.1]heptan-3-yl)-7-(thiazol-2-yl)benzo[d]oxazol-4-yl)ethan-1-ol] | < 100
24 | CC(C)c1cc(-c2nccs2)c2oc(N3CC4CC(C3)N4)nc2c1 [Example 22] | < 100
25 | CCOC(=O)c1cc(-n2cccn2)c2oc(N3CC4CCCC(C3)N4)nc2c1 [Example 93, Ethyl 2-(3,9-diazabicyclo[3.3.1]nonan-3-yl)-7-(1H-pyrazol-1-yl)benzo[d]oxazole-5-carboxylate] | 100 to 1000
26 | COC(C)c1cc(-c2nccs2)c2oc(N3CC4CCC(C3)N4)nc2c1 (stereo not shown) [Example 110, 2-(3,8-Diazabicyclo[3.2.1]octan-3-yl)-5-(1-methoxyethyl)-7-(thiazol-2-yl)benzo[d]oxazole] | < 100
27 | FC(F)(F)c1c(Cl)cc(-n2cccn2)c2oc(N3CC4CCC(C3)N4)nc12 [Example 15, 2-(3,8-Diazabicyclo[3.2.1]octan-3-yl)-5-chloro-7-(1H-pyrazol-1-yl)-4-(trifluoromethyl)benzo[d]oxazole] | < 100
28 | OCC(CO)COc1cc(-c2nccs2)c2oc(N3CC4CCC(C3)N4)nc2c1 [Example 71, 2-(((2-(3,8-Diazabicyclo[3.2.1]octan-3-yl)-7-(thiazol-2-yl)benzo[d]oxazol-5-yl)oxy)methyl)propane-1,3-diol] | < 100
29 | O=C(c1cc(-c2nccs2)c2oc(N3CC4CCC(C3)N4)nc2c1OC(F)(F)F)N1CCC1 [Example 192, (2-(3,8-Diazabicyclo[3.2.1]octan-3-yl)-7-(thiazol-2-yl)-4-(trifluoromethoxy)benzo[d]oxazol-5-yl) (azetidin-1-yl)methanone] | < 100
30 | CC(C)(O)C(Oc1ccc(-c2nccs2)c2oc(N3CC4CC(C3)N4)nc12)C(F)(F)F (stereo not shown) [Example 313, 3-((2-(3,6-Diazabicyclo[3.1.1]heptan-3-yl)-7-(thiazol-2-yl)benzo[d]oxazol-4-yl)oxy)-4,4,4-trifluoro-2-methylbutan-2-ol] | < 100
31 | CC(=O)c1cc(-c2nccs2)c2oc(N3CC4CCC(C3)N4)nc2c1OC(F)(F)F [Example 213, 1-(2-(3,8-Diazabicyclo[3.2.1]octan-3-yl)-7-(thiazol-2-yl)-4-(trifluoromethoxy)benzo[d]oxazol-5-yl)ethan-1-one] | < 100

Same assay, conditions: scintillation proximity assay; class symbols; read-out: PDE4 Inhibitory Activity

Row | SMILES | IC50 [nM]
32 | CN(C)S(=O)(=O)c1ccc(-c2nccs2)c2oc(N3CC4CC(C3)N4)nc12 [Example 388, 2-(3,6-diazabicyclo[3.1.1]heptan-3-yl)-N,N-dimethyl-7-(thiazol-2-yl)benzo [d]oxazole-4-sulfonamide] | < 100
33 | c1csc(-c2ccc(C3CC3)c3nc(N4CC5CC(C4)N5)oc23)n1 [Example 344, 2-(3,6-diazabicyclo [3.1.1]heptan-3-yl)-4-cyclopropyl-7-(thiazol-2-yl)benzo[d] oxazole] | < 100
34 | ON1C2CC1CN(c1nc3c(OC(F)(F)F)ccc(-c4nccs4)c3o1)C2 [Example 380, 3-(7-(thiazol-2-yl)-4-(trifluoro-methoxy)benzo[d]oxazol-2-yl)-3,6-diazabicyclo [3.1.1]heptan-6-ol] | < 100
35 | CC(O)c1cc(-c2nccs2)c2oc(N3CC4CCC(C3)N4O)nc2c1C(F)(F)F (stereo not shown) [Example 384, 3-(5-(1-hydroxy-ethyl)-7-(thiazol-2-yl)-4-(trifluoro-methyl)benzo[d]oxazol-2-yl)-3,8-diazabicyclo[3.2.1] octan-8-ol] | > 1000
36 | c1csc(-c2ccc(N3CCCC3)c3nc(N4CC5CC(C4)N5)oc23)n1 [Example 415, 2-(3,6-diazabicyclo[3.1.1]heptan-3-yl)-4-(pyrrolidin-1-yl)-7-(thiazol-2-yl)benzo [d]oxazole] | < 100
37 | CC(C)(O)c1cc(-c2nccs2)c2oc(N3CC4CCC(C3)N4O)nc2c1C(F)(F)F [Example 381, 3-(5-(2-hydroxy-propan-2-yl)-7-(thiazol-2-yl)-4-(trifluoromethyl)benzo[d]oxazol-2-yl)-3,8-diaza-bicyclo[3.2.1] octan-8-ol] | > 1000

— patent publication US10669283B2, “Compound and pharmacologically acceptable salt thereof” (MEIJI SEIKA PHARMA CO., LTD., priority 2016, dated 2020)
